Assay results as given in US9200005B2, “Inhibitor compounds of phosphodiesterase type 10A” (AbbVie Deutschland GmbH & Co. KG, priority 2013, dated 2015).
Where a name gives a salt, the structure may show the parent alone.

Biological target: PDE10A (UniProt Q9Y233)
Test: Measurement of PDE activity (HTRF cAMP kit, recombinant PDE10A)
Assay type: biochemical, human, rat and mouse
Details: substrate 20 nM, 60 minutes at 29° C.
Protocol: a) Measurement of PDE Activity
The recombinant PDE proteins are used in in vitro enzymatic reaction for measurement of PDE activity. These recombinant proteins, including PDE10A (human, rat and mouse PDE10) and isoforms of PDEs 1, 3, 4, and 5, were purchased from commercial vendor BPS Bioscience. The enzymatic activity of PDEs was determined by cAMP measurement kit from CisBio (IBA) using HTRF technology.
The PDE enzymatic reaction was carried out in assay buffer (20 mM Tris-HCl pH 7.5, 10 mM MgCl2, 0.1% bovine serum albumin) containing enzyme and substrate. […] The substrate cyclic nucleotide (cAMP or cGMP) concentration used in the assay was 20 nM for PDE10, and 100 nM for other PDEs. The inhibitory effect of compound was determined by incubating various concentration of inhibitor in the enzymatic assay. […] Next, the compound at varying concentration was mixed with PDE enzyme. The reaction was initiated by addition of cyclic nucleotide substrate, and incubated for 60 minutes at 29° C. The reaction was stopped by addition of lysis buffer from the assay kit. The cAMP-d2 and anti-cAMP cryptate in the lysis buffer detected the level of cAMP left from the PDE hydrolysis reaction. […] Thus, IC50 value of inhibitor can be obtained by plotting inhibitor concentration against PDE activity at that concentration.

Compound	IC50 [nM]
Cn1nc(-c2ccncc2)c2scc(-c3cncnc3)c2c1=O [Example 6, 5-methyl-7-(pyridin-4-yl)-3-(pyrimidin-5-yl)thieno[2,3-d]pyridazin-4(5H)-one]	< 100
Cn1ccnc1COc1nn(C)c(=O)c2c(-c3ccncc3)csc12 [Example 56, 5-methyl-7-[(1-methyl-1H-imidazol-2-yl)methoxy]-3-(pyridin-4-yl)thieno[2,3-d]pyridazin-4(5H)-one]	200 to 500
Cn1nc(OC2Cc3ccccc3C2)c2scc(-c3ccncc3)c2c1=O [Example 60, 7-(2,3-dihydro-1H-inden-2-yloxy)-5-methyl-3-(pyridin-4-yl)thieno[2,3-d]pyridazin-4(5H)-one trifluoroacetate]	200 to 500
Cn1nc(OCc2nc3ccccc3s2)c2scc(-c3ccncc3)c2c1=O [Example 71, 7-(1,3-benzothiazol-2-ylmethoxy)-5-methyl-3-(pyridin-4-yl)thieno[2,3-d]pyridazin-4(5H)-one trifluoroacetate]	< 100
Cc1cnc(Cl)c(Oc2nn(C)c(=O)c3c(-c4ccncc4)csc23)c1 [Example 90, 7-[(2-chloro-5-methylpyridin-3-yl)oxy]-5-methyl-3-(pyridin-4-yl)thieno[2,3-d]pyridazin-4(5H)-one trifluoroacetate]	< 100
Cn1nc(-c2cnn(CC(F)(F)F)c2)c2scc(-c3ccncc3)c2c1=O [Example 100, 5-methyl-3-(pyridin-4-yl)-7-[1-(2,2,2-trifruoroethyl)-1H-pyrazol-4-yl]thieno[2,3-d]pyridazin-4(5H)-one bis(trifluoroacetate)]	< 100
COc1ccc(-c2nn(C)c(=O)c3c(-c4ccncc4)csc23)cc1OC [Example 102, 7-(3,4-dimethoxyphenyl)-5-methyl-3-(pyridin-4-yl)thieno[2,3-d]pyridazin-4(5H)-one trifluoroacetate]	< 100
Cn1nc(-c2ccnc(F)c2)c2scc(-c3ccncc3)c2c1=O [Example 104, 7-(2-fluoropyridin-4-yl)-5-methyl-3-(pyridin-4-yl)thieno[2,3-d]pyridazin-4(5H)-one bis(trifluoroacetate)]	100 to 200
Cn1nc(-c2cccc(Cl)c2)c2scc(-c3ccncc3)c2c1=O [Example 105, 7-(3-chlorophenyl)-5-methyl-3-(pyridin-4-yl)thieno[2,3-d]pyridazin-4(5H)-one trifluoroacetate]	200 to 500
Cn1nc(-c2cccc(O)c2)c2scc(-c3ccncc3)c2c1=O [Example 107, 7-(3-hydroxyphenyl)-5-methyl-3-(pyridin-4-yl)thieno[2,3-d]pyridazin-4(5H)-one trifluoroacetate (salt)]	< 100
Cn1nc(-c2ccc(Cl)cc2)c2scc(-c3ccncc3)c2c1=O [Example 110, 7-(4-chlorophenyl)-5-methyl-3-(pyridin-4-yl)thieno[2,3-d]pyridazin-4(5H)-one trifluoroacetate]	200 to 500
COc1cc(OC)cc(-c2nn(C)c(=O)c3c(-c4ccncc4)csc23)c1 [Example 111, 7-(3,5-dimethoxyphenyl)-5-methyl-3-(pyridin-4-yl)thieno[2,3-d]pyridazin-4(5H)-one trifluoroacetate]	100 to 200
Cn1nc(-c2cccc(OC(F)(F)F)c2)c2scc(-c3ccncc3)c2c1=O [Example 112, 5-methyl-3-(pyridin-4-yl)-7-[3-(trifluoromethoxy)phenyl]thieno[2,3-d]pyridazin-4(5H)-one trifluoroacetate]	200 to 500
COc1ccccc1-c1nn(C)c(=O)c2c(-c3ccncc3)csc12 [Example 113, 7-(2-methoxyphenyl)-5-methyl-3-(pyridin-4-yl)thieno[2,3-d]pyridazin-4(5H)-one trifluoroacetate]	200 to 500
Cn1nc(-c2cccc(C(F)(F)F)c2)c2scc(-c3ccncc3)c2c1=O [Example 114, 5-methyl-3-(pyridin-4-yl)-7-[3-(trifluoromethyl)phenyl]thieno[2,3-d]pyridazin-4(5H)-one trifluoroacetate]	100 to 200
Cn1nc(-c2ccccc2F)c2scc(-c3ccncc3)c2c1=O [Example 115, 7-(2-fluorophenyl)-5-methyl-3-(pyridin-4-yl)thieno[2,3-d]pyridazin-4(5H)-one trifluoroacetate]	200 to 500
Cn1nc(-c2cccc(F)c2)c2scc(-c3ccncc3)c2c1=O [Example 116, 7-(3-fluorophenyl)-5-methyl-3-(pyridin-4-yl)thieno[2,3-d]pyridazin-4(5H)-one trifluoroacetate]	200 to 500
Cn1nc(-c2ccc(C(F)(F)F)cc2)c2scc(-c3ccncc3)c2c1=O [Example 117, 5-methyl-3-(pyridin-4-yl)-7-[4-(trifluoromethyl)phenyl]thieno[2,3-d]pyridazin-4(5H)-one trifluoroacetate]	100 to 200
CN(C)c1cccc(-c2nn(C)c(=O)c3c(-c4ccncc4)csc23)c1 [Example 119, 7-[3-(dimethylamino)phenyl]-5-methyl-3-(pyridin-4-yl)thieno[2,3-d]pyridazin-4(5H)-one bis(trifluoroacetate)]	< 100
Cc1cc(-c2nn(C)c(=O)c3c(-c4ccncc4)csc23)ccn1 [Example 120, 5-methyl-7-(2-methylpyridin-4-yl)-3-(pyridin-4-yl)thieno[2,3-d]pyridazin-4(5H)-one bis(trifluoroacetate)]	< 100
Cc1ccc(-c2nn(C)c(=O)c3c(-c4ccncc4)csc23)cc1 [Example 121, 5-methyl-7-(4-methylphenyl)-3-(pyridin-4-yl)thieno[2,3-d]pyridazin-4(5H)-one trifluoroacetate]	100 to 200
Cn1nc(OCc2ccc3c(c2)CNC3)c2scc(-c3ccncc3)c2c1=O [Example 126, 7-(2,3-dihydro-1H-isoindol-5-ylmethoxy)-5-methyl-3-(pyridin-4-yl)thieno[2,3-d]pyridazin-4(5H)-one bis(trifluoroacetate)]	200 to 500
N#CCCn1nc(-c2ccncc2)c2scc(-c3ccncc3)c2c1=O [Example 140, 3-[4-oxo-3,7-di(pyridin-4-yl)thieno[2,3-d]pyridazin-5(4H)-yl]propanenitrile]	100 to 200
methyl 3-({[5-methyl-4-oxo-3-(pyridin-4-yl)-4,5-dihydrothieno[2,3-d]pyridazin-7-yl]oxy}methyl)benzoate trifluoroacetate [Example 72]	< 100

System: not listed separately
Test: Determination of the microsomal half-life / microsomal clearance, rat liver microsomes
Assay type: in vitro ADME
Details: 0.5 μM test substance, 0.25 mg of microsomal protein/mL, NADPH, 37° C.
Protocol: (§1) b) Determination of the Microsomal Half-Life:
(§2) The metabolic stability of the compounds of the invention was determined in the following assay.
(§3) The test substances were incubated in a concentration of 0.5 μM as follows:
(§4) 0.5 μM test substance are preincubated together with liver microsomes from different species (from rat, human or other species) (0.25 mg of microsomal protein/mL) in 0.05 M potassium phosphate buffer of pH 7.4 in microtiter plates at 37° C. for 5 min. The reaction is started by adding NADPH (1 mg/mL). After 0, 5, 10, 15, 20 and 30 min, 50 μl aliquots are removed, and the reaction is immediately stopped and cooled with the same volume of acetonitrile. The samples are frozen until analyzed. The remaining concentration of undegraded test substance is determined by MSMS. The half-life (T½) is determined from the gradient of the signal of test substance/unit time plot, it being possible to calculate the half-life of the test substance, assuming first order kinetics, from the decrease in the concentration of the compound with time. The microsomal clearance (mCl) is calculated from mCl=ln 2/T½/(content of microsomal protein in mg/mL)×1000 [mL/min/mg] (modified from references: Di, The Society for Biomoleculur Screening, 2003, 453-462; Obach, DMD, 1999 vol 27. N 11, 1350-1359).

Compound	Rat mCl
Cn1nc(-c2ccc(OC(F)(F)F)cc2)c2scc(-c3ccncc3)c2c1=O [Example 101, 5-methyl-3-(pyridin-4-yl)-7-[4-(trifluoromethoxy)phenyl]thieno[2,3-d]pyridazin-4(5H)-one]	++ (++: <100 μl min^−1 mg^−1)
Cn1nc(OCC2CCNCC2)c2scc(-c3ccncc3)c2c1=O.O=C(O)C(F)(F)F [Example 125, 5-methyl-7-(piperidin-4-ylmethoxy)-3-(pyridin-4-yl)thieno[2,3-d]pyridazin-4(5H)-one bis(trifluoroacetate)]	++ (++: <100 μl min^−1 mg^−1)
N#Cc1cccc(-c2csc3c(-c4ccncc4)nn(CC(F)(F)F)c(=O)c23)c1 [Example 129, 3-[4-oxo-7-(pyridin-4-yl)-5-(2,2,2-trifluoroethyl)-4,5-dihydrothieno[2,3-d]pyridazin-3-yl]benzonitrile]	++ (++: <100 μl min^−1 mg^−1)
CC(C)(C)n1nc(-c2ccncc2)c2scc(-c3ccncc3)c2c1=O [Example 132, 5-tert-butyl-3,7-di(pyridin-4-yl)thieno[2,3-d]pyridazin-4(5H)-one]	++ (++: <100 μl min^−1 mg^−1)
O=c1c2c(-c3ccncc3)csc2c(-c2ccncc2)nn1C1CCCC1 [Example 134, 5-cyclopentyl-3,7-di(pyridin-4-yl)thieno[2,3-d]pyridazin-4(5H)-one]	+ (+: 100-220 μl min^−1 mg^−1)
O=c1c2c(-c3ccncc3)csc2c(-c2ccncc2)nn1CC1CCCO1 (stereo not drawn) [Example 141, 3,7-di(pyridin-4-yl)-5-(tetrahydrofuran-2-ylmethyl)thieno[2,3-d]pyridazin-4(5H)-one]	++ (++: <100 μl min^−1 mg^−1)

System: not listed separately
Test: Determination of the microsomal half-life / microsomal clearance, human liver microsomes
Assay type: in vitro ADME
Details: 0.5 μM test substance, 0.25 mg of microsomal protein/mL, NADPH, 37° C.
Protocol: as §1, §2, §3, §4

Compound	Human mCl
Cn1nc(-c2ccc(OC(F)(F)F)cc2)c2scc(-c3ccncc3)c2c1=O [Example 101, 5-methyl-3-(pyridin-4-yl)-7-[4-(trifluoromethoxy)phenyl]thieno[2,3-d]pyridazin-4(5H)-one]	++ (++: <100 μl min^−1 mg^−1)
Cn1nc(OCC2CCNCC2)c2scc(-c3ccncc3)c2c1=O.O=C(O)C(F)(F)F [Example 125, 5-methyl-7-(piperidin-4-ylmethoxy)-3-(pyridin-4-yl)thieno[2,3-d]pyridazin-4(5H)-one bis(trifluoroacetate)]	++ (++: <100 μl min^−1 mg^−1)
N#Cc1cccc(-c2csc3c(-c4ccncc4)nn(CC(F)(F)F)c(=O)c23)c1 [Example 129, 3-[4-oxo-7-(pyridin-4-yl)-5-(2,2,2-trifluoroethyl)-4,5-dihydrothieno[2,3-d]pyridazin-3-yl]benzonitrile]	++ (++: <100 μl min^−1 mg^−1)
CC(C)(C)n1nc(-c2ccncc2)c2scc(-c3ccncc3)c2c1=O [Example 132, 5-tert-butyl-3,7-di(pyridin-4-yl)thieno[2,3-d]pyridazin-4(5H)-one]	+ (+: 100-220 μl min^−1 mg^−1)
O=c1c2c(-c3ccncc3)csc2c(-c2ccncc2)nn1C1CCCC1 [Example 134, 5-cyclopentyl-3,7-di(pyridin-4-yl)thieno[2,3-d]pyridazin-4(5H)-one]	∘ (∘ not avialable or >220 μl min^−1 mg^−1)
O=c1c2c(-c3ccncc3)csc2c(-c2ccncc2)nn1CC1CCCO1 (stereo not drawn) [Example 141, 3,7-di(pyridin-4-yl)-5-(tetrahydrofuran-2-ylmethyl)thieno[2,3-d]pyridazin-4(5H)-one]	+ (+: 100-220 μl min^−1 mg^−1)
